Results on 25 compounds are retold here after US20230365592A1 (Agios Pharmaceuticals, Inc., priority 2022, published 2023).

The target of this test is T1, human PAH with the R408W mutation (Homo sapiens, UniProt P00439, R408W).
T1 construct: expressed in transfected cells
T1 sequence (P00439 1-452 R408W): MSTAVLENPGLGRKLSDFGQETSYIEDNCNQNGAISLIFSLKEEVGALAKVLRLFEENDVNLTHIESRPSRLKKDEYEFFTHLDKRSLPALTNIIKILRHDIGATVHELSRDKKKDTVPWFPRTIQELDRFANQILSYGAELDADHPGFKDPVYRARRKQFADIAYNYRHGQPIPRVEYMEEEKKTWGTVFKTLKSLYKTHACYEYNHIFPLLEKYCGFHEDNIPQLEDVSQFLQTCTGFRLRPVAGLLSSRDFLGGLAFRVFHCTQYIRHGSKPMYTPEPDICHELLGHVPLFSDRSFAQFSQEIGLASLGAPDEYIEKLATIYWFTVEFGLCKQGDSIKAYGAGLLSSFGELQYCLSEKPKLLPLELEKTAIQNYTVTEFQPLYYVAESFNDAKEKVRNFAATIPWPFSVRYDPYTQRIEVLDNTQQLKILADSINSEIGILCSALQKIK
The experiment in a line: Cell Based Phenylalanine Flux Assay.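 Further: after compound treatment, cells received sepiapterin plus isotope-labelled Phenylalanine for 4 hours, then labelled Tyrosine in the medium was quantified, 10-point 2-fold dilution series run in duplicate.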 To be noted: A375 cells expressing human R408W PAH; 24 hrs compound incubation; 13C-Tyrosine by LC-MS; average where tested multiple times; read-out: AC50.
A word on the AC50: it is the concentration giving half of the maximal activity seen. Turning to `CCOc1cccc2cc([C@@H]3c4nc[nH]c4CCN3C(=O)c3ocnc3C(F)F)nn12` [Example 1240, (S)-(4-(difluoromethyl)oxazol-5-yl)(4-(7-ethoxypyrazolo[1,5-a]pyridin-2-yl)-6,7-dihydro-1H-imidazo[4,5-c]pyridin-5(4H)-yl)methanone], the AC50 is less than 500 nM.

With `CCOc1cccc2cc([C@H]3c4nc[nH]c4CCN3C(=O)c3ocnc3C(F)F)nn12` [Example 1241, (R)-(4-(difluoromethyl)oxazol-5-yl)(4-(7-ethoxypyrazolo[1,5-a]pyridin-2-yl)-6,7-dihydro-1H-imidazo[4,5-c]pyridin-5(4H)-yl)methanone], the AC50 lay within 1000 to 5000 nM.

In the case of `CCOc1cccc2cc([C@@H]3c4nc[nH]c4CCN3C(=O)c3nnc(C(C)(C)F)o3)nn12` [Example 1242, (S)-(4-(7-ethoxypyrazolo[1,5-a]pyridin-2-yl)-6,7-dihydro-1H-imidazo[4,5-c]pyridin-5(4H)-yl)(5-(2-fluoropropan-2-yl)-1,3,4-oxadiazol-2-yl)methanone], the AC50 is 1000 to 5000 nM.

`CCOc1cccc2cc([C@H]3c4nc[nH]c4CCN3C(=O)c3nnc(C(C)(C)F)o3)nn12` [Example 1243, (R)-(4-(7-ethoxypyrazolo[1,5-a]pyridin-2-yl)-6,7-dihydro-1H-imidazo[4,5-c]pyridin-5(4H)-yl)(5-(2-fluoropropan-2-yl)-1,3,4-oxadiazol-2-yl)methanone]: the AC50 was 1000 to 5000 nM.

Regarding `CCOc1cccc2cc([C@H]3c4nc[nH]c4CCN3C(=O)c3oc(C(C)(C)O)nc3C(F)F)nn12` [Example 1244, (R)-(4-(difluoromethyl)-2-(2-hydroxypropan-2-yl)oxazol-5-yl)(4-(7-ethoxypyrazolo[1,5-a]pyridin-2-yl)-6,7-dihydro-1H-imidazo[4,5-c]pyridin-5(4H)-yl)methanone], the AC50 is 1000 to 5000 nM.

With `CC(C)(C)c1nnc(C(=O)N2CCc3[nH]cnc3[C@@H]2c2cc3cccc(F)n3n2)o1` [Example 1248, (R)-(5-(tert-butyl)-1,3,4-oxadiazol-2-yl)(4-(7-fluoropyrazolo[1,5-a]pyridin-2-yl)-6,7-dihydro-1H-imidazo[4,5-c]pyridin-5(4H)-yl)methanone], the half-maximal activity concentration (AC50) fell in the range of 1000 to 5000 nM.

On to `CC(C)(C)c1nnc(C(=O)N2CCc3[nH]cnc3[C@H]2c2cc3cccc(F)n3n2)o1` [Example 1249, (S)-(5-(tert-butyl)-1,3,4-oxadiazol-2-yl)(4-(7-fluoropyrazolo[1,5-a]pyridin-2-yl)-6,7-dihydro-1H-imidazo[4,5-c]pyridin-5(4H)-yl)methanone], for which the AC50 was less than 500 nM.

On to `Cc1nc(C(C)(C)F)oc1C(=O)N1CCc2[nH]cnc2[C@H]1c1cc2ccccn2n1` [Example 1250, (S)-(2-(2-fluoropropan-2-yl)-4-methyloxazol-5-yl)(4-(pyrazolo[1,5-a]pyridin-2-yl)-6,7-dihydro-1H-imidazo[4,5-c]pyridin-5(4H)-yl)methanone], for which the concentration at half-maximal activity (AC50) is less than 500 nM.

On to `Cc1nc(C(C)(C)F)oc1C(=O)N1CCc2[nH]cnc2[C@@H]1c1cc2ccccn2n1` [Example 1251, (R)-(2-(2-fluoropropan-2-yl)-4-methyloxazol-5-yl)(4-(pyrazolo[1,5-a]pyridin-2-yl)-6,7-dihydro-1H-imidazo[4,5-c]pyridin-5(4H)-yl)methanone], for which the AC50 was 500 to 1000 nM.

Regarding `Cc1nc(C(C)(C)F)oc1C(=O)N1CCc2[nH]cnc2[C@H]1c1cc2cccc(C)n2n1` [Example 1252, (S)-(2-(2-fluoropropan-2-yl)-4-methyloxazol-5-yl)(4-(7-methylpyrazolo[1,5-a]pyridin-2-yl)-6,7-dihydro-1H-imidazo[4,5-c]pyridin-5(4H)-yl)methanone], the AC50 was less than 500 nM.

`Cc1nc(C(C)(C)F)oc1C(=O)N1CCc2[nH]cnc2[C@@H]1c1cc2cccc(C)n2n1` [Example 1253, (R)-(2-(2-fluoropropan-2-yl)-4-methyloxazol-5-yl)(4-(7-methylpyrazolo[1,5-a]pyridin-2-yl)-6,7-dihydro-1H-imidazo[4,5-c]pyridin-5(4H)-yl)methanone]: the AC50 is 1000 to 5000 nM.

Take `CC(C)(F)c1nc(C(F)F)c(C(=O)N2CCc3[nH]cnc3[C@@H]2c2cc3ccccn3n2)o1` [Example 1254, (R)-(4-(difluoromethyl)-2-(2-fluoropropan-2-yl)oxazol-5-yl)(4-(pyrazolo[1,5-a]pyridin-2-yl)-6,7-dihydro-1H-imidazo[4,5-c]pyridin-5(4H)-yl)methanone]: the concentration at half-maximal activity (AC50) lay in the range of 1000 to 5000 nM.

As for `CC(C)(F)c1nc(C(F)F)c(C(=O)N2CCc3[nH]cnc3[C@H]2c2cc3ccccn3n2)o1` [Example 1255, (S)-(4-(difluoromethyl)-2-(2-fluoropropan-2-yl)oxazol-5-yl)(4-(pyrazolo[1,5-a]pyridin-2-yl)-6,7-dihydro-1H-imidazo[4,5-c]pyridin-5(4H)-yl)methanone], the AC50 was less than 500 nM.

As to `O=C(c1nnc(-c2ccncn2)o1)N1CCc2[nH]cnc2[C@@H]1c1cc2c(F)cccn2n1` [Example 1259, (R)-(4-(4-fluoropyrazolo[1,5-a]pyridin-2-yl)-6,7-dihydro-1H-imidazo[4,5-c]pyridin-5(4H)-yl)(5-(pyrimidin-4-yl)-1,3,4-oxadiazol-2-yl)methanone], the AC50 is 1000 to 5000 nM.

In the case of `Cc1nc(C(C)(C)F)oc1C(=O)N1CCc2[nH]cnc2[C@H]1c1cc2c(C)cccn2n1` [Example 1260, (S)-(2-(2-fluoropropan-2-yl)-4-methyloxazol-5-yl)(4-(4-methylpyrazolo[1,5-a]pyridin-2-yl)-6,7-dihydro-1H-imidazo[4,5-c]pyridin-5(4H)-yl)methanone], the half-maximal activity concentration (AC50) was less than 500 nM.

For the compound `Cc1nc(C(C)(C)F)oc1C(=O)N1CCc2[nH]cnc2[C@H]1c1cc2c(C(F)(F)F)cccn2n1` [Example 1262, (S)-(2-(2-fluoropropan-2-yl)-4-methyloxazol-5-yl)(4-(4-(trifluoromethyl)pyrazolo[1,5-a]pyridin-2-yl)-6,7-dihydro-1H-imidazo[4,5-c]pyridin-5(4H)-yl)methanone], the concentration at half-maximal activity (AC50) is less than 500 nM.

Take `Cc1nc(C(C)(C)F)oc1C(=O)N1CCc2[nH]cnc2[C@H]1c1cc2cccc(Cl)n2n1` [Example 1266, (S)-(4-(7-chloropyrazolo[1,5-a]pyridin-2-yl)-6,7-dihydro-1H-imidazo[4,5-c]pyridin-5(4H)-yl)(2-(2-fluoropropan-2-yl)-4-methyloxazol-5-yl)methanone]: the AC50 was less than 500 nM.

Consider `O=C(c1oc(C2(O)CC2)nc1C(F)F)N1CCc2[nH]cnc2[C@H]1c1cc2cccc(C(F)(F)F)n2n1` [Example 1268, (S)-(4-(difluoromethyl)-2-(1-hydroxycyclopropyl)oxazol-5-yl)(4-(7-(trifluoromethyl)pyrazolo[1,5-a]pyridin-2-yl)-6,7-dihydro-1H-imidazo[4,5-c]pyridin-5(4H)-yl)methanone], for which the concentration at half-maximal activity (AC50) is less than 500 nM.

With `O=C(c1cnn2ccccc12)N1CCc2[nH]cnc2[C@H]1c1cc2c(C(F)(F)F)cccn2n1` [Example 1270, (S)-pyrazolo[1,5-a]pyridin-3-yl(4-(4-(trifluoromethyl)pyrazolo[1,5-a]pyridin-2-yl)-6,7-dihydro-1H-imidazo[4,5-c]pyridin-5(4H)-yl)methanone], the AC50 is less than 500 nM.

With `O=C(c1cnn2ccccc12)N1CCc2[nH]cnc2[C@H]1c1cc2c(Cl)cccn2n1` [Example 1272, (S)-(4-(4-chloropyrazolo[1,5-a]pyridin-2-yl)-6,7-dihydro-1H-imidazo[4,5-c]pyridin-5(4H)-yl)(pyrazolo[1,5-a]pyridin-3-yl)methanone], the AC50 was less than 500 nM.

Take `Cc1nc(C(C)(C)F)oc1C(=O)N1CCc2[nH]cnc2[C@@H]1c1cc2c(F)cccn2n1` [Example 1274, (R)-(2-(2-fluoropropan-2-yl)-4-methyloxazol-5-yl)(4-(4-fluoropyrazolo[1,5-a]pyridin-2-yl)-6,7-dihydro-1H-imidazo[4,5-c]pyridin-5(4H)-yl)methanone]: the AC50 was less than 500 nM.

Regarding `Cc1nc(C(C)(C)F)oc1C(=O)N1CCc2[nH]cnc2[C@H]1c1cc2c(F)cccn2n1` [Example 1275, (S)-(2-(2-fluoropropan-2-yl)-4-methyloxazol-5-yl)(4-(4-fluoropyrazolo[1,5-a]pyridin-2-yl)-6,7-dihydro-1H-imidazo[4,5-c]pyridin-5(4H)-yl)methanone], the AC50 is less than 500 nM.

On to `Cc1nc(C(C)(C)F)oc1C(=O)N1CCc2[nH]cnc2[C@H]1c1cc2c(Cl)cccn2n1` [Example 1276, (S)-(4-(4-chloropyrazolo[1,5-a]pyridin-2-yl)-6,7-dihydro-1H-imidazo[4,5-c]pyridin-5(4H)-yl)(2-(2-fluoropropan-2-yl)-4-methyloxazol-5-yl)methanone], for which the half-maximal activity concentration (AC50) was less than 500 nM.

As to `Cc1nc(C(C)(C)F)oc1C(=O)N1CCc2[nH]cnc2[C@@H]1c1cc2c(Cl)cccn2n1` [Example 1277, (R)-(4-(4-chloropyrazolo[1,5-a]pyridin-2-yl)-6,7-dihydro-1H-imidazo[4,5-c]pyridin-5(4H)-yl)(2-(2-fluoropropan-2-yl)-4-methyloxazol-5-yl)methanone], the AC50 is less than 500 nM.

As for `Cc1nc(C(C)(C)F)oc1C(=O)N1CCc2[nH]cnc2[C@H]1c1cc2cccc(F)n2n1` [Example 1278, (S)-(2-(2-fluoropropan-2-yl)-4-methyloxazol-5-yl)(4-(7-fluoropyrazolo[1,5-a]pyridin-2-yl)-6,7-dihydro-1H-imidazo[4,5-c]pyridin-5(4H)-yl)methanone], the concentration at half-maximal activity (AC50) was less than 500 nM.
